# Experimental data published in PubChem BioAssay (NCI).
#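 Five concentrations, 48 hours, 96-well plates. Abbreviation: GI50, concentration required for 50% inhibition of growth. Definition used: TGI = concentration required for complete inhibition of growth.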
# Tests used:
# Test in all cases: DTP human tumour cell line panel, 48 h
# NCI-H460 lung = test system: NCI-H460 lung
# SK-OV-3 ovarian = test system: SK-OV-3 ovarian
# TK-10 renal = test system: TK-10 renal
# SF-539 CNS = test system: SF-539 CNS
# OVCAR-3 ovarian = test system: OVCAR-3 ovarian
# HT29 colon = test system: HT29 colon
# NCI-H226 lung = test system: NCI-H226 lung
# MDA-MB-435 = test system: MDA-MB-435
# SNB-19 CNS = test system: SNB-19 CNS
# HL-60(TB) leukemia = test system: HL-60(TB) leukemia
SMILES,TGI (NCI-H460 lung),TGI (SK-OV-3 ovarian),TGI (TK-10 renal),TGI (SF-539 CNS),TGI (OVCAR-3 ovarian),TGI (HT29 colon),TGI (NCI-H226 lung),TGI (MDA-MB-435),TGI (SNB-19 CNS),TGI (HL-60(TB) leukemia),GI50 (NCI-H460 lung),GI50 (TK-10 renal),GI50 (SF-539 CNS),GI50 (SNB-19 CNS),GI50 (OVCAR-3 ovarian),GI50 (HL-60(TB) leukemia),GI50 (HT29 colon),GI50 (NCI-H226 lung),GI50 (MDA-MB-435)
CC(C)c1cc2c(c(O)c1O)[C@@]1(C(=O)O)CCCC(C)(C)[C@@H]1CC2,50.9 µM,> 100 µM,31.5 µM,38.8 µM,57.3 µM,30.7 µM,29.4 µM,34.5 µM,,,,,,,,,,,
Cc1c(O)nc(-n2[nH]c3c(c2=O)CCCC3)[nH]c1=O,> 100 µM,> 100 µM,> 100 µM,,,> 100 µM,> 100 µM,> 100 µM,> 100 µM,> 100 µM,,,,,,,,,
CSC1=N/C(=C\c2ccc(C)cc2)C(=O)N1CN1CCCCC1,,> 100 µM,> 100 µM,,> 100 µM,> 100 µM,> 100 µM,> 100 µM,> 100 µM,,,,,,,,,,
S=c1c2cn[nH]c2nc2scc(-c3ccc(Cl)cc3)n12,57.5 µM,> 100 µM,31.8 µM,38.4 µM,47.8 µM,32.6 µM,,15.7 µM,86.2 µM,,,,,,,,,,
C=CCc1cc(-c2nc(=S)[nH][nH]2)ccc1N=NNc1ccc(C(=O)O)cc1,,> 100 µM,> 100 µM,,> 100 µM,> 100 µM,> 100 µM,> 100 µM,> 100 µM,> 100 µM,,,,,,,,,
O=C1C=C/C(=N\N=C(c2ccccc2)c2ccccc2)O1,,> 10 µM,> 10 µM,,,> 10 µM,,> 10 µM,,> 10 µM,,,,,,,,,
Cc1ccc(/C=N\NC2c3cc(Cl)ccc3Nc3nc(=O)[nH]c(C)c32)cc1 (centres undefined),> 100 µM,> 100 µM,> 100 µM,> 100 µM,> 100 µM,> 100 µM,> 100 µM,,> 100 µM,> 100 µM,,,,,,,,,
O=C(O)[C@H]1CCCN1CP(=O)(O)CN1CCC[C@@H]1C(=O)O,> 100 µM,> 100 µM,,,> 100 µM,> 100 µM,,> 100 µM,> 100 µM,> 100 µM,,,,,,,,,
Cc1cccc(C)c1NC(=O)C(Cc1c[nH]c2ccccc12)NC(=O)OCc1ccccc1 (centres undefined),43.6 µM,65.1 µM,43.7 µM,41 µM,69.3 µM,68.7 µM,,48.5 µM,51.6 µM,44.3 µM,,,,,,,,,
C[N+](C)([O-])CCOc1cc2c(c3ccccc13)-c1ccccc1C2=O,43.2 µM,> 100 µM,,38.4 µM,> 52.6 µM,> 35.6 µM,78.8 µM,,> 55.1 µM,35.5 µM,,,,,,,,,
On1c(-c2ccccc2)c(-c2ccccc2N2CCCC2)c2ccccc21,> 100 µM,> 100 µM,> 100 µM,> 100 µM,> 100 µM,> 100 µM,> 100 µM,,> 100 µM,> 100 µM,,,,,,,,,
C[n+]1c(/C=C/c2c(O)ccc3ccccc23)ccc2ccccc21,14.5 µM,,11.7 µM,13.9 µM,8.38 µM,7.63 µM,13.2 µM,12.6 µM,14.8 µM,13.4 µM,6.32 µM,5.49 µM,6.4 µM,6.56 µM,2.29 µM,5.7 µM,2.04 µM,5.65 µM,5.84 µM
